Legend:
[1] = tested on: human FXRα promoter 1 (FXRα1/α2); assay: Luciferase reporter assay, FXRα promoter 1, in HepG2 cells; type: cell-based; conditions: with or without LNnT, p<0.05, FIG. 4b
Experimental: HepG2 cells, obtained from ATCC (#HB-8065), were cultured in Eagle's minimal essential media supplemented with non-essential amino acids, L-glutamine, sodium pyruvate, sodium bicarbonate, 10% fetal bovine serum, and antibiotics.
(§1) The upstream promoter 1 and downstream promoter 2 regions of the human FXRα gene were cloned into the pGL3-basic luciferase reporter construct and transfected into HepG2 cells in a 96-well format or primary hepatocytes in a 24-well format using a luciferase system (Promega). A β-galactosidase reporter construct was used as a transfection control. Promoters 1 and 2 of the human FXRα gene were PCR amplified and cloned into the pGL3-basic luciferase reporter (Promega). Point mutations were introduced using the site-directed mutagenesis kit (Stratagene).
Both human and mouse FXRα contain two major promoters (FIG. 2c). […] To examine the signalling pathways through which LNFPIII regulates FXRα activity, the activities of luciferase reporters driven by upstream (promoter 1) or downstream (promoter 2) regulatory regions were examined in HepG2 cells (human hepatoma cells). Reporters driven by a 2 kb fragment of human FXRα promoter 1 or a 0.13 kb fragment of human FXRα promoter 2 were transfected into HepG2 cells. Twenty-four hours after transfection, cells were treated with or without LNFPIII (20 μg/ml) or SEA (2 μg/ml) for an additional 24 hours.

[2] = tested on: primary mouse hepatocytes
[3] = tested on: human FXRα promoter 2 (FXRα3/α4); assay: Luciferase reporter assay, FXRα promoter 2, in HepG2 cells; type: cell-based
From the text: as §1
To examine the signalling pathways through which LNFPIII regulates FXRα activity, the activities of luciferase reporters driven by upstream (promoter 1) or downstream (promoter 2) regulatory regions were examined in HepG2 cells (human hepatoma cells). Reporters driven by a 2 kb fragment of human FXRα promoter 1 or a 0.13 kb fragment of human FXRα promoter 2 were transfected into HepG2 cells. Twenty-four hours after transfection, cells were treated with or without LNFPIII (20 μg/ml) or SEA (2 μg/ml) for an additional 24 hours.
To gain insight into the region of promoter 2 responsible for promoter activation, the minimal LNFPIII responsive region was determined through a series of promoter deletion mutants.

Erk [4] = assay: Immunoblot of phospho-Erk in primary hepatocytes; type: cell-based, mouse; conditions: PD98059 1 hour prior to overnight LNFPIII, FIG. 3g
Experimental: FIG. 3G (left panel) is an immunoblot for levels of phospho-Erk (p-Erk) and total Erk (t-Erk) in primary hepatocytes treated with vehicle, LNFPIII, PD90859, or LNFPIII+PD98059. Cells were pretreated with PD98059 for 1 hour prior to overnight LNFPIII treatment. Actin levels served as a loading control. FIG. 3G (right panel) is a bar graph depicting the densitometric analysis of the immunoblot from FIG. 3G (left panel). Results are presented as mean±SEM.
FIG. 3H is an immunoblot for levels of p-Erk and t-Erk in primary hepatocytes treated with vehicle, SEA, or SEA+PD98059. Cells were pretreated with PD98059 for 1 hour prior to overnight SEA treatment. Actin levels served as a loading control.
(§2) For Western blot analyses, tissue and cell lysates were prepared in lysis buffer (20 mM Tris-HCl, 100 mM NaCl, 1 mM EDTA, NP-40, glycerol, PMSF, and DTT) in the presence of protease and phosphatase inhibitors. The four FXRα (NR1H4) isoforms were based on previous reports, which were originally designated as FXRα1/α2 and FXRβ1/β2 (Huber et al., Gene 2002; 290:35-43; Zhang et al., JBC 2003; 278:104-10). The latter were renamed FXRα3/α4 to avoid confusion with rodent FXRβ (NR1H5) (Lefebvre et al., Physiol Rev 2009; 89:147-91).

[5] = tested on: primary mouse hepatocytes; conditions: PD98059 1 hour prior to overnight LNFPIII, FIG. 3i
[6] = tested on: Male C57BL/6J mice on a high-fat, high carbohydrate diet; assay: High fat diet-induced steatosis and liver function in mice (histology, liver triglycerides, circulating AST/ALT); type: in vivo; conditions: vs vehicle
Experimental: (§3) Male C57BL/6J mice (8-10 weeks of age) were placed on a high-fat, high carbohydrate diet (F3282, Bio-Serv) for the duration for the experiments. After 6 weeks of the special diet, mice were intraperitoneally injected 2 times per week with 25 μg of dextran (vehicle) or 25 μg of LNFPIII conjugated with dextran (LNFPIII-dex). A second cohort was treated with 0.9% NaCl or SEA dissolved in 0.9% NaCl (25 μg/mouse/twice a week). Metabolic studies started 4 weeks after LNFPIII or SEA treatment and were conducted after 6 hrs of fasting. Animals were sacrificed at the 6th week of treatment for serum and tissue collection. Most experiments were repeated in two cohorts (n=4-7/treatment). Body weight and food intake were monitored weekly.
Circulating levels of ALT and AST, markers of overall liver function, were measured using commercial kits as described in Liu et al. (JBC 2011; 286:1237-47).
The Dana Farber/Harvard Cancer Center Research Pathology Cores provided all histological services and preliminary assessments by a pathologist. Briefly, tissues were collected from animals and fixed in 10% formalin (liver) for 48 hours. Fixed samples were rinsed in PBS and sent to the histology core to be paraffin embedded, sectioned, and stained with hematoxylin and eosin according to standard procedures. A staff pathologist analyzed the samples for signs of inflammation, fatty liver, fibrosis, and other pathologies associated with the liver.
In this example, the ability of LNFPIII or SEA to prevent high fat diet-induced steatosis and preserve liver function was examined. Mice were injected with either vehicle (dextran, 25 μg), LNFPIII conjugated to dextran (25 μg), or SEA twice a week (n=5 for each group) as described in the Methods section.
To determine whether overall liver function was affected by LNFPIII treatment, circulating levels of AST and ALT were also examined.

livers of mice = conditions: mouse, in vivo
FXRα−/− mice = assay: LNFPIII treatment of FXRα−/− mice (liver mRNA, hepatic triglyceride, serum AST/ALT); type: in vivo
From the text: Male C57BL/6J mice (8-10 weeks of age) were purchased from The Jackson Laboratory (Bar Harbor, Me.). FXR α−/− mice (both in the C57BL/6J background) were obtained from The Jackson Laboratory. All animal studies were approved by the Harvard Medical Area Standing Committee on Animals.
as §3
Furthermore, to determine whether FXRα mediated the effects of LNFPIII on lipogenesis and fatty acid oxidation, primary hepatocytes were isolated from wild type or FXRα^−/− mice, cultured, and tested for de novo lipogenesis and fatty acid oxidation.

Erk [7] = assay: Immunoblot of phospho-Erk in liver lysates of treated mice; type: in vivo; conditions: FIG. 3f
Experimental: FIG. 3F (top panel) is an immunoblot for levels of phosphor-Erk (p-Erk) and total Erk (t-Erk) in liver lysates prepared from vehicle or LNFPIII treated mice (n=5, showing representative 3 samples/treatment). Actin levels served as a loading control. FIG. 3F (bottom panel) is a bar graph depicting the densitometric analysis of the immunoblot from FIG. 3F (top panel). Results are presented as mean±SEM. *p<0.05.
as §2

[8] = high fat diet mice, p<0.05, FIG. 1d/1e
[9] = FIG. 2d, primary hepatocytes treated for 24 hours
[10] = FIG. 2d, primary hepatocytes treated for 24 hours, p<0.05

CC(=O)N[C@H]1[C@H](O[C@H]2[C@@H](O)[C@@H](CO)O[C@@H](O[C@H]3[C@H](O)[C@@H](O)C(O)O[C@@H]3CO)[C@@H]2O)O[C@H](CO)[C@@H](O[C@@H]2O[C@H](CO)[C@H](O)[C@H](O)[C@H]2O)[C@@H]1O (mixture of isomers) [LNnT, lacto-N-neotetraose]
activity of the FXRα1/α2 promoter in a luciferase assay [1]: significantly increased
lipogenesis in cultured primary hepatocytes [2]: blocked lipogenesis in cultured primary hepatocytes in a dose-dependent manner

COc1cccc(-c2cc(=O)c3ccccc3o2)c1N [PD98059, reference compound]
responsiveness of the FXRα promoter 2 to LNFPIII in presence of PD98059 [3]: completely abolished
activation of Erk in response to LNFPIII in presence of PD98059 (Erk [4]): completely abolished
ability of LNFPIII to suppress lipid synthesis in presence of PD98059 [2]: completely abolished
ability of LNFPIII to increase β-oxidation in presence of PD98059 [5]: completely abolished

lacto-N-fucopentaose III [LNFPIII]
high fat diet-induced hepatic lipid accumulation (histology) ([6]; 25 μg i.p. twice a week, 6 weeks, FIG. 1a): less high fat diet-induced hepatic lipid accumulation
levels of triglycerides in livers ([6]; 25 μg twice a week, p<0.05, FIG. 1b): significantly lower levels
circulating levels of ALT [6, 8]: significantly reduced levels
circulating levels of AST [6, 8]: significantly reduced levels
ACC1/2 mRNA in livers (livers of mice): significantly reduced
Arg1 (M2 marker) mRNA in liver tissue (livers of mice): significantly higher levels
F4/80 mRNA in liver tissue (livers of mice): significantly lower levels
FAS mRNA in livers (livers of mice): significantly reduced
IL-1β mRNA in liver tissue (livers of mice): unchanged
IL-6 mRNA in liver tissue (livers of mice): significantly lower levels
Mgl1 (M2 marker) mRNA in liver tissue (livers of mice): significantly higher levels
SCD1 mRNA in livers (livers of mice): significantly reduced
SREBP-1c mRNA in livers (livers of mice): significantly reduced
β-oxidation gene expression in livers (livers of mice): did not affect
reduction in serum ALT concentration, wild type vs FXR−/− mice (FXRα−/− mice; FIG. 2i, p<0.05): required FXRα expression
reduction in serum AST concentration, wild type vs FXR−/− mice (FXRα−/− mice; FIG. 2i, p<0.05): required FXRα expression
reduction in hepatic triglyceride content, wild type vs FXR−/− mice (FXRα−/− mice; FIG. 2h, p<0.05): required FXRα expression
Acc1 mRNA expression in FXRα−/− mice (FXRα−/− mice; livers, FIG. 2f): did not reduce
Acc2 mRNA expression in FXRα−/− mice (FXRα−/− mice; livers, FIG. 2f): did not reduce
Fas mRNA expression in FXRα−/− mice (FXRα−/− mice; livers, FIG. 2f): did not reduce
Scd1 mRNA expression in FXRα−/− mice (FXRα−/− mice; livers, FIG. 2f): did not reduce
Srebp mRNA expression in FXRα−/− mice (FXRα−/− mice; livers, FIG. 2f): did not reduce
activation of FXRα promoter 2 reporter with mutated overlapping AP-1 sites (site 3) ([3]; HepG2, site-directed mutagenesis, FIG. 3d, 3e): two overlapping AP-1 sites were required for the activation
Erk phosphorylation in liver (Erk [7]): increased
ability of LNFPIII to suppress lipid synthesis in presence of PD98059 [2]: dependent on Erk activity and FXRα
lipogenesis in primary hepatocytes ([2]; 20 μg/ml, 24 hours): significantly suppressed
ability of LNFPIII to increase β-oxidation in presence of PD98059 [5]: dependent on Erk activity and FXRα
β-oxidation gene expression in primary hepatocytes (primary hepatocytes): did not affect
FXRα1/α2 mRNA expression (primary hepatocytes; [9]): remained unchanged
LXRα mRNA expression (primary hepatocytes; [9]): remained unchanged
BSEP transcripts (primary hepatocytes; [10]): significantly upregulated
OATP transcripts (primary hepatocytes; [10]): significantly upregulated
PLTP transcripts (primary hepatocytes; [10]): significantly upregulated
SHP transcripts (primary hepatocytes; [10]): significantly upregulated
FXRα3/α4 transcripts (primary hepatocytes; FIG. 2d, primary hepatocytes treated for 24 hours, vs vehicle, p<0.05): significantly upregulated

— patent US20140315781A1, “METHODS OF TREATING FATTY LIVER DISEASE WITH HELMINTH-DERIVED GLYCAN-CONTAINING COMPOUNDS” (priority 2011, published 2014)
